Assay [1] concerns GH361. Put plainly: Mannan-induced BtCepA expression in the mouse gut (ceftriaxone challenge, fecal CFU). It counts as in vivo, mice. The source says:
FIG. 4. In vivo induction of ceftriaxone resistance using exogenous α-mannan. Crosses indicate times of i.p. injections. GA: Group A of mice received mannan in their drinking water. GB: Group B of mice which were given access to regular drinking water. CRO: ceftriaxome.
“α-mannan is a fungal cell wall glycan that contains α-mannosidic linkages similar to those found in the core regions of N-linked glycans present on secreted mucus and epithelial surfaces” (Martens et al., 2011). However, expression levels of the PUL genes involved in mannan utilization in mice fed a diet lacking exogenous α-mannan were only partial when compared to other PULs showing high activity in vivo (Martens et al., 2008). The effectiveness of the mannan induced system was tested in vivo in seven-week-old male C57BL/6J WT mice with established B. thetaiotaomicron within the intestine, housed in a conventional animal facility after treating for 3 days with 1 mg/ml ampicillin and 1 mg/ml neomycin administered via drinking water. To achieve this, the strain GH361 containing the BtCepA gene controlled by the inducible low expression system (Table 1) was administered by oral gavage (1×10^8 colony-forming units (CFU) in 100 μl of phosphate buffered saline) to two groups of 4 mice. One of the groups (Group A) were given drinking water with containing 2.5% (v/v) mannan-oligosaccharide supplement (ActiveMOS, Orffa, Werkendam, The Netherlands) prepared treating the powder (10% w/v) with 1% NaOH at 100° C. for 1 h, cooling and neutralizing to pH7 with dilute HCl solution (Huang et al., 2010). […] Both groups of mice were challenged every other day via i.p. injection with ceftriaxone (0.4 mg/mice), a third-generation cephalosporin that is excreted via the biliary route and affects the colonic microbiota (Arvidsson et al., 1982). The MICs of ceftriaxone determined for GH361 were 8 mg/L when cells were grown in the absence of mannan and 64 mg/L when mannan was added to the growth medium. […]

For assay [2], the system named is GH361. Description: MIC of ceftriaxone for GH361. It counts as cell-based, B. thetaiotaomicron. Conditions: Bacteroides thetaiotaomicron. As for the experimental part:
“α-mannan is a fungal cell wall glycan that contains α-mannosidic linkages similar to those found in the core regions of N-linked glycans present on secreted mucus and epithelial surfaces” (Martens et al., 2011). However, expression levels of the PUL genes involved in mannan utilization in mice fed a diet lacking exogenous α-mannan were only partial when compared to other PULs showing high activity in vivo (Martens et al., 2008). The effectiveness of the mannan induced system was tested in vivo in seven-week-old male C57BL/6J WT mice with established B. thetaiotaomicron within the intestine, housed in a conventional animal facility after treating for 3 days with 1 mg/ml ampicillin and 1 mg/ml neomycin administered via drinking water. To achieve this, the strain GH361 containing the BtCepA gene controlled by the inducible low expression system (Table 1) was administered by oral gavage (1×10^8 colony-forming units (CFU) in 100 μl of phosphate buffered saline) to two groups of 4 mice. […] The MICs of ceftriaxone determined for GH361 were 8 mg/L when cells were grown in the absence of mannan and 64 mg/L when mannan was added to the growth medium. […]

The test system of a further assay is B. thetaiotaomicron. Put plainly: Minimum inhibitory concentration of ampicillin for variant strains with or without mannan. It is filed as cell-based. Conditions: Bacteroides thetaiotaomicron, read-out: minimum inhibitory concentration (MIC) of ampicillin. An excerpt:
Since optimization of this novel gene expression system was based upon the use of a heterologous reporter gene, the system was validated by determining if it can be used to study B. thetaiotaomicron genes. For this purpose, the complementation of a deletion mutant of BtcepA (Stentz et al., 2015), a cephalosporinase gene involved in the resistance of bacterial cells to β-lactam antibiotics, was undertaken. The primer pair Lactamase_F and Lactamase_EcoRI_R was used to amplify an 885-bp region from B. thetaiotaomicron VPI-5482 genomic DNA encoding BtcepA. […] The β-lactamase activity was measured after 2 h of induction with increasing concentrations of mannan (Table 4). […] Periplasmic proteins were prepared as described by Stentz et al. (Stentz et al., 2015). β-lactamase activity was assessed spectrophotometrically by hydrolysis of nitrocefin according to the manufacturer's instructions (Calbiochem). […] The basal level measured for the low expression system was negligible since it represented only 2.7% of the activity measured for the wild-type control strain. To establish how these measured activities translate into resistance to β-lactam antibiotics the minimum inhibitory concentration (MIC) of the β-lactam antibiotic ampicillin was determined for each variant strain grown in the presence or absence of mannan.

Each structure is given as a SMILES string. In brackets after ≈: the same amount, converted by molar mass. Like-named read-outs stand apart in the source and are kept apart here.

Turning to `CO/N=C(\C(=O)N[C@@H]1C(=O)N2C(C(=O)O)=C(CSc3nc(=O)c(=O)[nH]n3C)CS[C@H]12)c1csc(N)n1` [ceftriaxone], in the assay on GH361 [1] (ceftriaxone increased to 0.8 mg, both groups), the “effect on GH361 population levels” value is given as “decreased significantly”. For the same compound, the “effect on levels of GH361 (CFU in fecal samples)” value in the assay on GH361 [1] (group A given mannan in drinking water, three successive i.p. doses 0.4 mg/mice) is listed as “no effect”. The “decrease of levels of GH361 (CFU in fecal samples)” value in the assay with GH361 [1] (group B not given mannan, three successive i.p. doses 0.4 mg/mice) is reported as “approximately 15 fold”. Moreover, the MIC in the assay on GH361 [2] (read-out: MIC of ceftriaxone, GH361, mannan added to the growth medium) was 64 µg/mL; in the assay on GH361 [2] (read-out: MIC of ceftriaxone, GH361 grown in the absence of mannan), 8 µg/mL.

Take `CC1(C)S[C@@H]2[C@H](NC(=O)[C@H](N)c3ccccc3)C(=O)N2[C@H]1C(=O)O` [ampicillin]: the MIC in the assay with B. thetaiotaomicron was in the range of 4 to 2050 µg/mL (≈ 11.4 to 5860 µM).

Source of the values: patent US11000581B2, “Engineering gut commensal bacteria to express heterologous proteins in their outer membrane vesicles (OMVs) for delivery to the GI-tract” (QUADRAM INSTITUTE BIOSCIENCE, priority 2016, dated 2021).
